For one molecule, IC50 results are on record in ChEMBL document CHEMBL1149060, “Structure of malhamensilipin A, an inhibitor of protein tyrosine kinase, from the cultured chrysophyte Poterioochromonas malhamensis” (J Nat Prod, 1994).

pIC50: −log10 of the molar value.

This assay in a line: Inhibition of Rous sarcoma virus pp60v-src.

As for `CCCCCCCCC(Cl)C(Cl)C(O)C(Cl)C(Cl)C(Cl)CCCCCCCC/C(Cl)=C\OS(=O)(=O)O` (stereo unspecified) [MALHAMENSILIPIN A], the pIC50 is 4.46.

Broadly, the pIC50 is the IC50 on a negative log10 scale, so that one unit is a factor of ten. A high value points to a low IC50.
